Data: US9504690B2, “Tetracyclic xanthene derivatives and methods of use thereof for the treatment of viral diseases” (Merck Sharp & Dohme Corp., priority 2011, dated 2016)

Experiments:
HCV replicon 1b WT = experiment: Cell-based HCV replicon assay, 1b WT; conditions: Hepatitis C virus, 72 h; replicon cells, harvested day 3, replicon RNA by real time PCR (Taqman)
Protocol: (§1) To measure cell-based anti-HCV activity of selected compounds of the present invention, replicon cells were seeded at 5000 cells/well in 96-well collagen I-coated Nunc plates in the presence of the test compound. Various concentrations of test compound, typically in 10 serial 2-fold dilutions, were added to the assay mixture, with the starting concentration ranging from 250 μM to 1 μM. The final concentration of DMSO was 0.5%, fetal bovine serum was 5%, in the assay media. Cells were harvested on day 3 by the addition of 1× cell lysis buffer (Ambion cat #8721). The replicon RNA level was measured using real time PCR (Taqman assay). The amplicon was located in 5B. The PCR primers were: 5B.2F, ATGGACAGGCGCCCTGA (SEQ. ID. NO. 1); 5B.2R, […] (SEQ. ID. NO. 2); the probe sequence was FAM-labeled CACGCCATGCGCTGCGG (SEQ. ID. NO. 3). GAPDH RNA was used as endogenous control and was amplified in the same reaction as NS5B (multiplex PCR) using primers and VIC-labeled probe recommended by the manufacturer (PE Applied Biosystem). The real-time RT-PCR reactions were run on ABI PRISM 7900HT Sequence Detection System using the following program: 48° C. for 30 minutes, 95° C. for 10 minutes, 40 cycles of 95° C. for 15 sec, 60° C. for 1 minutes. The ΔCT values (CT5B-CTGAPDH) were plotted against the concentration of test compound and fitted to the sigmoid dose-response model using XLfit4 (MDL). […] Alternatively, to quantitate the absolute amount of replicon RNA, a standard curve was established by including serially diluted T7 transcripts of replicon RNA in the Taqman assay. All Taqman reagents were from PE Applied Biosystems. Such an assay procedure was described in detail in e.g. Malcolm et al., Antimicrobial Agents and Chemotherapy 50: 1013-1020 (2006).
(§2) HCV replicon assay data was calculated for selected compounds of the present invention using this method and is provided in the table below.

HCV replicon 1a WT = experiment: Cell-based HCV replicon assay, 1a WT; conditions: Hepatitis C virus, 72 h; replicon cells, harvested day 3, replicon RNA by real time PCR (Taqman)
Protocol: as §1, §2

HCV replicon 1b Y93H = experiment: Cell-based HCV replicon assay, 1b Y93H; conditions: Hepatitis C virus, 72 h, read-out: Replicon EC50 1b Y93H
Protocol: as §1, §2

HCV replicon 3a WT = experiment: Cell-based HCV replicon assay, 3a WT; conditions: Hepatitis C virus, 72 h; replicon cells, harvested day 3, replicon RNA by real time PCR (Taqman)
Protocol: as §1, §2

HCV replicon 1a Y93H = experiment: Cell-based HCV replicon assay, 1a Y93H; conditions: Hepatitis C virus, 72 h, read-out: Replicon EC50 1a Y93H
Protocol: as §1, §2

HCV replicon 2a WT = experiment: Cell-based HCV replicon assay, 2a WT; conditions: Hepatitis C virus, 72 h; replicon cells, harvested day 3, replicon RNA by real time PCR (Taqman)
Protocol: as §1, §2

HCV replicon 2b WT = experiment: Cell-based HCV replicon assay, 2b WT; conditions: Hepatitis C virus, 72 h; replicon cells, harvested day 3, replicon RNA by real time PCR (Taqman)
Protocol: as §1, §2

HCV replicon 4a WT = experiment: Cell-based HCV replicon assay, 4a WT; conditions: Hepatitis C virus, 72 h; replicon cells, harvested day 3, replicon RNA by real time PCR (Taqman)
Protocol: as §1, §2

| SMILES | EC50 (HCV replicon 1b WT) [nM] | EC50 (HCV replicon 1a WT) [nM] | EC50 (HCV replicon 1b Y93H) [nM] | EC50 (HCV replicon 3a WT) [nM] | EC50 (HCV replicon 1a Y93H) [nM] | EC50 (HCV replicon 2a WT) [nM] | EC50 (HCV replicon 2b WT) [nM] | EC50 (HCV replicon 4a WT) [nM] |
| --- | --- | --- | --- | --- | --- | --- | --- | --- |
| COC(=O)N[C@H](C(=O)N1CCC[C@H]1c1ncc(-c2ccc3c(c2)-n2ccc4cc(-c5cnc([C@@H]6CCCN6C(=O)[C@@H](NC(=O)OC)C(C)C)[nH]5)cc(c42)O3)[nH]1)C(C)C [Compound 16] | 0.009 | 0.1 | 9.1 | 9.61 | 50.9 | 0.104 | 9.07 | 1.31 |
| COC(=O)N[C@H](C(=O)N1CCC[C@H]1c1ncc(-c2cc3c4c(c2)Oc2ccc(-c5cnc([C@@H]6CCCN6C(=O)[C@@H](NC(=O)OC)C(C)C)[nH]5)cc2N4CCO3)[nH]1)C(C)C [Compound 13, Methyl [(2S)-1-{(2S)-2-[5-(5-{2-[(2S)-1-{(2S)-2-[(methoxycarbonyl)amino]-3-methylbutanoyl}pyrrolidin-2-yl]-1H-imidazol-5-yl}-1,2-dihydro[1,4]oxazino[2,3,4-kl]phenoxazin-10-yl)-1H-imidazol-2-yl]pyrrolidin-1-yl}-3-methyl-1-oxobutan-2-yl]carbamate] | 0.005 | 0.002 | 19 | 1.63 | 143 | 0.01 | 19.3 | 0.48 |
| COC(=O)N[C@H](C(=O)N1CCC[C@H]1c1ncc(-c2ccc3c(c2)Oc2ccc(-c4cnc([C@@H]5CCCN5C(=O)[C@@H](NC(=O)OC)C(C)C)[nH]4)c4c2N3CC4)[nH]1)C(C)C [Compound 17] | 0.001 | 0.006 | 19.6 | 0.067 | 19.5 | 0.007 | 19.6 | 0.026 |
| COC(=O)N[C@H](C(=O)N1CCC[C@H]1c1ncc(-c2ccc3c(c2)Oc2ccc(-c4cnc([C@@H]5CCCN5C(=O)[C@@H](NC(=O)OC)C(C)C)[nH]4)c4ccn-3c24)[nH]1)C(C)C [Compound 1, Methyl [(2S)-1-{(2S)-2-[5-(3-{2-[(2S)-1-{(2S)-2-[(methoxycarbonyl)amino]-3-methyl-butanoyl}pyrrolidin-2-yl]-1H-imidazol-5-yl}pyrrolo[3,2,1-kl]phenoxazin-8-yl)-1H-imidazol-2-yl]pyrrolidin-1-yl}-3-methyl-1-oxobutan-2-yl]carbamate] | 0.009 | 0.0107 | 0.56 | 0.323 | 41.7 | 0.004 |  | 0.044 |
| COC(=O)N[C@H](C(=O)N1CCC[C@H]1c1ncc(-c2cc3c4c(c2)Oc2ccc(-c5cnc([C@@H]6CCCN6C(=O)[C@@H](NC(=O)OC)C(C)C)[nH]5)cc2N4CC3)[nH]1)C(C)C [Compound 6, Methyl [(2S)-1-{(2S)-2-[5-(4-{2-[(2S)-1-{(2S)-2-[(methoxycarbonyl)amino]-3-methylbutanoyl}pyrrolidin-2-yl]-1H-imidazol-5-yl}-1,2-dihydropyrrolo[3,2,1-kl]phenoxazin-9-yl)-1H-imidazol-2-yl]pyrrolidin-1-yl}-3-methyl-1-oxobutan-2-yl]carbamate] | 0.005 | 0.037 | 0.303 | 0.22 | 43.5 | 0.011 | 18.9 | 0.22 |
| COC(=O)N[C@H](C(=O)N1CCC[C@H]1c1ncc(-c2ccc3c(c2)Oc2ccc(-c4cnc([C@@H]5CCCN5C(=O)[C@@H](NC(=O)OC)C(C)C)[nH]4)c4occ-3c24)[nH]1)C(C)C [Compound 14, Methyl [(2S)-1-{(2S)-2-[5-(3-{2-[(2S)-1-{(2S)-2-[(methoxycarbonyl)amino]-3-methylbutanoyl}pyrrolidin-2-yl]-1H-imidazol-5-yl}furo[2,3,4-kl]xanthen-8-yl)-1H-imidazol-2-yl]pyrrolidin-1-yl}-3-methyl-1-oxobutan-2-yl]carbamate] | 0.002 | 0.011 | 0.278 | 0.161 | 31.5 | 0.002 | 34.5 | 0.056 |
